{
  "source": "patent US8765994B2",
  "about": "“Ship 1 modulators” (The University of British Columbia, priority 2001, dated 2014)",
  "key": {"antitrypanosomal": {"system": "antitrypanosomal", "details": "reported in literature; cited from earlier work"}, "SHIP 1−/− macrophages": {"system": "SHIP 1−/− macrophages", "assay": "Macrophage NO release assay in SHIP 1-/- macrophages", "assay_type": "cell-based", "details": "FIG. 2", "description": "For the NO release assay, wild-type or SHIP 1−/− macrophage cells were aliquoted into microtitre plates (5×10^4/well) and activated with […] endotoxin (LPS) in the presence or absence of test compound or DMSO carrier. The cells were incubated at 37° C., 5% CO2 for 24 hours and the culture supernatant was removed for NO determination using the Griess reagent. Alternatively, J774.1a macrophage cells were treated with 10 ng/ml of test compound dissolved in DMSO for 40 minutes prior to the addition of LPS. Culture supernatants were collected after 24 hr. for determination of NO concentration using the Griess reagent."}, "[1]": {"system": "bone marrow derived mast cells", "assay": "Mast cell activation assay (β-hexosaminidase release)", "assay_type": "cell-based", "details": "FIG. 3", "description": "For the mast cell activation assay, bone marrow derived mast cells were incubated at 4° C. with anti-DNP IgE for 1 hr. They were then washed twice with 23° C. Tyrode's buffer, and incubated in the presence of test compound or vehicle control for 30 minutes before a 15 minute treatment with DNP-human serum albumin. The degree of degranulation was determined by measuring the release of β-hexosaminidase."}, "SHIP 1 enzyme": {"target": "T1, SHIP 1 enzyme (Homo sapiens, UniProt Q92835)", "T1 construct": "hemagglutinin (HA); hexahistidine (His6); made in house", "T1 sequence (Q92835 1-1189)": "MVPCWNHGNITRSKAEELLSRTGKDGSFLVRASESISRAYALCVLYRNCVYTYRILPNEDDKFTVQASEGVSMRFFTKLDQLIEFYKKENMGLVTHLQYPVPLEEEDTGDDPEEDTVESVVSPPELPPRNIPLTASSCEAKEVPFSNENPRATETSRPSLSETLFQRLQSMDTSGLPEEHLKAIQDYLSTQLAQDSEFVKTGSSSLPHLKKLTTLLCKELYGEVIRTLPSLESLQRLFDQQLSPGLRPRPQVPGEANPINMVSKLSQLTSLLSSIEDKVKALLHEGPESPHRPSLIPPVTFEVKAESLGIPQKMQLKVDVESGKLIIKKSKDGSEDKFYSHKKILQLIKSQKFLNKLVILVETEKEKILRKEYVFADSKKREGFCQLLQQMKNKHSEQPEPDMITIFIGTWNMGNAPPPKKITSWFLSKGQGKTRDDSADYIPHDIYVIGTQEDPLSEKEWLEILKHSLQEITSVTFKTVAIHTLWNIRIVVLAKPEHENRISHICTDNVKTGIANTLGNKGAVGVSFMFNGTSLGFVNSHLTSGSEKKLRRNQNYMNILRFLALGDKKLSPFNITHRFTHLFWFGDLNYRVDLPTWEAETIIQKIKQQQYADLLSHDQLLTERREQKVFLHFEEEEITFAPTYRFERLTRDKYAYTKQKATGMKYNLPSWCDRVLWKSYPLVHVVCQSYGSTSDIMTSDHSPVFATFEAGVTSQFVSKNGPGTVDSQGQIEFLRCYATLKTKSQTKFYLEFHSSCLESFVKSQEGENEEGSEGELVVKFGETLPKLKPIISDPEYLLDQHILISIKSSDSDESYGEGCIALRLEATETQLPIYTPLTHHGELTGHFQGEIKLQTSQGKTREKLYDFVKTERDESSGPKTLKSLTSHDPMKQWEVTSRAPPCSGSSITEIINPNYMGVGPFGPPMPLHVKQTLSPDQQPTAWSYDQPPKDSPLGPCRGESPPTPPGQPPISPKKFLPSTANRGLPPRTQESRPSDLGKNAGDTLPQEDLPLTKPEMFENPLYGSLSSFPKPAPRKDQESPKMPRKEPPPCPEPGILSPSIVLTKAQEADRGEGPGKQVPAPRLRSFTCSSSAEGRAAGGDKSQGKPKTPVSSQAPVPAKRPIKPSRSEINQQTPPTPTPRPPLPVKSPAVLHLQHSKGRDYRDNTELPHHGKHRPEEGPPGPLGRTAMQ", "assay": "SHIP 1 enzyme assay (inorganic phosphate release, malachite green)", "assay_type": "biochemical", "details": "FIG. 1", "description": "The assay was performed in 96-well microtitre plates. SHIP 1 enzyme was produced with a hemagglutinin and a hexahistidine tag, from a mammalian expression vector. The His tag was employed to enhance purification. SHIP 1 enzyme (10 ng) was incubated with extract or DMSO for 15 minutes at room temperature before addition of 200 µM inositol-1,3,4,5-tetrakisphosphate. The reaction was allowed to proceed for 20 minutes at 37 degrees C. The amount of inorganic phosphate released was then assessed by the addition of malachite green reagent followed by an absorbance measurement at 650 nm."}, "antiplasmodial": {"system": "antiplasmodial", "details": "reported in literature; cited from earlier work"}},
  "data": [
    {"smiles": "COC(=O)c1cc(O)c(O)c2c1[C@]1(C)CC[C@H]3C(C)(C)CCC[C@]3(C)[C@H]1C2", "note": "[Pelorol, pelorol]", "values": [
      {"measurement": "antitrypanosomal effects", "setting": "antitrypanosomal", "value": "weak"},
      {"measurement": "Inhibition of NO release in SHIP 1−/− macrophages", "setting": "SHIP 1−/− macrophages", "value": "not observed"},
      {"measurement": "IgE induced mast cell degranulation", "setting": "[1]", "value": "significantly reduced"},
      {"measurement": "Activation of SHIP 1 in enzyme assay (assay-guided fractionation)", "setting": "SHIP 1 enzyme", "value": "active compound"},
      {"measurement": "antiplasmodial effects", "setting": "antiplasmodial", "value": "weak"}
    ]}
  ]
}
